Data reported in US8063099B2, “Trans-3-aza-bicyclo[3.1.0]hexane derivatives” (Actelion Pharmaceuticals Ltd., priority 2007, dated 2011).

Key:
human orexin-1 receptor = target: T1, human orexin-1 receptor (Homo sapiens, UniProt O43613); assay: Intracellular calcium measurements (FLIPR), orexin receptor antagonistic activity; format: cell-based; details: FLIPR2; CHO cells expressing human orexin-1 receptor; 3 nM orexin-A; read-out: OX1 IC50
T1 construct: expressed in transfected cells; host or cells: Chinese hamster ovary (CHO) cells, G418 selection
T1 sequence (O43613 1-425): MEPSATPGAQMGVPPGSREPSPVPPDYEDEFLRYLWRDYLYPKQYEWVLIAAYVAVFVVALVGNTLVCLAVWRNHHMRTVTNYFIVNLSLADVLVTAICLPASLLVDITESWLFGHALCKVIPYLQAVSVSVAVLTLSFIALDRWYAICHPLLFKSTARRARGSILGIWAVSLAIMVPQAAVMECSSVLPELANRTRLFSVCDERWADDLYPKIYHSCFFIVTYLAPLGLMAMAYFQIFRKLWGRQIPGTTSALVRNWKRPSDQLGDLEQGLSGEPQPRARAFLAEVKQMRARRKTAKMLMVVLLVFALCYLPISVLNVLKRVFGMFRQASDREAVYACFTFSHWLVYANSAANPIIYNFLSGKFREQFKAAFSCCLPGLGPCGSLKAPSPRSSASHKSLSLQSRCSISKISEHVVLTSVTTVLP
Experimental: (§1) The orexin receptor antagonistic activity of the compounds of formula (I) is determined in accordance with one of the following experimental methods.
(§2) Intracellular Calcium Measurements:
(§3) Chinese hamster ovary (CHO) cells expressing the human orexin-1 receptor and the human orexin-2 receptor, respectively, are grown in culture medium (Ham F-12 with L-Glutamine) containing 300 μg/ml G418, 100 U/ml penicillin, 100 μg/ml streptomycin and 10% heat inactivated fetal calf serum (FCS). The cells are seeded at 20'000 cells/well into 384-well black clear bottom sterile plates (Greiner). The seeded plates are incubated overnight at 37° C. in 5% CO2.
(§4) Human orexin-A as an agonist is prepared as 1 mM stock solution in MeOH:water (1:1), diluted in HBSS containing 0.1% bovine serum albumin (BSA), NaHCO3:0.375 g/l and 20 mM HEPES for use in the assay at a final concentration of 3 nM.
(§5) Antagonists are prepared as 10 mM stock solution in DMSO, then diluted in 384-well plates, first in DMSO, then in HBSS containing 0.1% bovine serum albumin (BSA), NaHCO3: 0.375 g/l and 20 mM HEPES.
(§6) On the day of the assay, 50 μl of staining buffer (HBSS containing 1% FCS, 20 mM HEPES, NaHCO3: 0.375 g/l, 5 mM probenecid (Sigma) and 3 μM of the fluorescent calcium indicator fluo-4 AM (1 mM stock solution in DMSO, containing 10% pluronic) is added to each well.
(§7) The 384-well cell-plates are incubated for 50 min at 37° C. in 5% CO2 followed by equilibration at RT for 30-120 min before measurement.
(§8) Within the Fluorescent Imaging Plate Reader (FLIPR2 or FLIPR Tetra, Molecular Devices), antagonists are added to the plate in a volume of 10 μl/well, incubated for 10 min and finally 10 μl/well of agonist is added. Fluorescence is measured for each well at 1 second intervals, and the height of each fluorescence peak is compared to the height of the fluorescence peak induced by 3 nM orexin-A with vehicle in place of antagonist. For each antagonist, the IC50 value (the concentration of compound needed to inhibit 50% of the agonistic response) is determined. With the FLIPR Tetra, non-optimized and optimized conditions were used. Optimized conditions were achieved by adjustment of pipetting speed and cell splitting regime. The calculated IC50 values of the compounds may fluctuate depending on the daily cellular assay performance. Fluctuations of this kind are known to those skilled in the art.

human orexin-2 receptor = target: T2, human orexin-2 receptor (Homo sapiens, UniProt O43614); assay: as above; format: cell-based; details: FLIPR2; CHO cells expressing human orexin-2 receptor; 3 nM orexin-A; read-out: OX2 IC50
T2 construct: expressed in transfected cells; host or cells: Chinese hamster ovary (CHO) cells, G418 selection
T2 sequence (O43614 1-444): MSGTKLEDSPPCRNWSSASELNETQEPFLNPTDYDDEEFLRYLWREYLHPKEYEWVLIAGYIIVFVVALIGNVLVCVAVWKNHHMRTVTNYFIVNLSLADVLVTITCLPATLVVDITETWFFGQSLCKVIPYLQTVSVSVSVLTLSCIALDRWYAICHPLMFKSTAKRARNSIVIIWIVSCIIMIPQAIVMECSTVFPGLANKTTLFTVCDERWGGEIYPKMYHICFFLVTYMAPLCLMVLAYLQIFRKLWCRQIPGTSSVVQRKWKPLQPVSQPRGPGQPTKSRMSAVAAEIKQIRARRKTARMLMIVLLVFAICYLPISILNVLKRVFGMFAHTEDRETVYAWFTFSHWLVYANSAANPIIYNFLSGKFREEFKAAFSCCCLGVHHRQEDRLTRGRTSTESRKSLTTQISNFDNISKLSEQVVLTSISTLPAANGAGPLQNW
Experimental: as §1, §2, §3, §4, §5, §6, §7, §8

IC50 (human orexin-1 receptor) [nM]	IC50 (human orexin-2 receptor) [nM]	Structure (SMILES)
34	102	O=C(NC[C@@H]1[C@H]2C[C@H]2CN1C(=O)c1ccccc1-c1ccccc1)c1cccc2occc12 [Example 2, Benzofuran-4-carboxylic acid[(1S,2S,5R)-3-(biphenyl-2-carbonyl)-3-aza-bicyclo[3.1.0]hex-2-ylmethyl]-amide]
14	66	Cc1nc(C(=O)N2C[C@@H]3C[C@@H]3[C@H]2CNC(=O)c2c(C)nc3sccn23)c(-c2ccccc2C)s1 [Example 11, 6-Methyl-imidazo[2,1-b]thiazole-5-carboxylic acid[(1S,2S,5R)-3-(2-methyl-5-o-tolyl-thiazole-4-carbonyl)-3-aza-bicyclo[3.1.0]hex-2-ylmethyl]-amide]
22	174	Cc1nc2sccn2c1C(=O)NC[C@@H]1[C@H]2C[C@H]2CN1C(=O)c1ccccc1-c1ccccc1F [Example 19, 6-Methyl-imidazo[2,1-b]thiazole-5-carboxylic acid[(1S,2S,5R)-3-(2′-fluoro-biphenyl-2-carbonyl)-3-aza-bicyclo[3.1.0]hex-2-ylmethyl]-amide]
35	338	Cc1ncc(C(=O)N2C[C@@H]3C[C@@H]3[C@H]2CNC(=O)c2c(C)nc3sccn23)c(-c2ccccc2)n1 [Example 23, 6-Methyl-imidazo[2,1-b]thiazole-5-carboxylic Acid[(1S,2S,5R)-3-(2-methyl-4-phenyl-pyrimidine-5-carbonyl)-3-aza-bicyclo[3.1.0]hex-2-ylmethyl]-amide]
102	647	Cc1nc2sccn2c1C(=O)NC[C@@H]1[C@H]2C[C@H]2CN1C(=O)c1ccccc1-c1csc(N)n1 [Example 24, 6-Methyl-imidazo[2,1-b]thiazole-5-carboxylic acid{(1S,2S,5R)-3-[2-(2-amino-thiazol-4-yl)-benzoyl]-3-aza-bicyclo[3.1.0]hex-2-ylmethyl}-amide]
4	27	Cc1cccc(-c2sc(Br)nc2C(=O)N2C[C@@H]3C[C@@H]3[C@H]2CNC(=O)c2c(C)nc3sccn23)c1 [Example 29, 6-Methyl-imidazo[2,1-b]thiazole-5-carboxylic acid[(1S,2S,5R)-3-(2-bromo-5-m-tolyl-thiazole-4-carbonyl)-3-aza-bicyclo[3.1.0]hex-2-ylmethyl]-amide]
960	167	Cc1nc2sccn2c1C(=O)NC[C@@H]1[C@H]2C[C@H]2CN1C(=O)c1ccccc1C1CCCCC1 [Example 31, 6-Methyl-imidazo[2,1-b]thiazole-5-carboxylic acid[(1S,2S,5R)-3-(2-cyclohexyl-benzoyl)-3-aza-bicyclo[3.1.0]hex-2-ylmethyl]-amide]
15	55	Cc1nc2sccn2c1C(=O)NC[C@@H]1[C@H]2C[C@H]2CN1C(=O)c1ccccc1-c1cccs1 [Example 32, 6-Methyl-imidazo[2,1-b]thiazole-5-carboxylic acid[(1S,2S,5R)-3-(2-thiophen-2-yl-benzoyl)-3-aza-bicyclo[3.1.0]hex-2-ylmethyl]-amide]
85	35	Cc1nc(-c2cccc(F)c2)c(C(=O)N2C[C@@H]3C[C@@H]3[C@H]2CNC(=O)c2c(C)nc3sccn23)s1 [Example 37, 6-Methyl-imidazo[2,1-b]thiazole-5-carboxylic acid{(1S,2S,5R)-3-[4-(3-fluoro-phenyl)-2-methyl-thiazole-5-carbonyl]-3-aza-bicyclo[3.1.0]hex-2-ylmethyl}-amide]
49	12	Cc1cccc(-c2sc(C)nc2C(=O)N2C[C@@H]3C[C@@H]3[C@H]2CNC(=O)c2cc(F)cc3c2OCOC3)c1 [Example 42, 6-Fluoro-4H-benzo[1,3]dioxine-8-carboxylic Acid[(1S,2S,5R)-3-(2-methyl-5-m-tolyl-thiazole-4-carbonyl)-3-aza-bicyclo[3.1.0]hex-2-ylmethyl]-amide]
26	19	Cc1cccc(-c2sc(C)nc2C(=O)N2C[C@@H]3C[C@@H]3[C@H]2CNC(=O)c2cccc3c2OC(C)(C)C3)c1 [Example 43, 2,2-Dimethyl-2,3-dihydro-benzofuran-7-carboxylic acid[(1S,2S,5R)-3-(2-methyl-5-m-tolyl-thiazole-4-carbonyl)-3-aza-bicyclo[3.1.0]hex-2-ylmethyl]-amide]
110	61	Cc1cccc(-c2sc(C)nc2C(=O)N2C[C@@H]3C[C@@H]3[C@H]2CNC(=O)c2cccc(C(F)(F)F)c2)c1 [Example 45, N-[(1S,2S,5R)-3-(2-Methyl-5-m-tolyl-thiazole-4-carbonyl)-3-aza-bicyclo[3.1.0]hex-2-ylmethyl]-3-trifluoromethyl-benzamide]
81	41	Cc1cccc(-c2sc(C)nc2C(=O)N2C[C@@H]3C[C@@H]3[C@H]2CNC(=O)c2c(C)noc2C)c1 [Example 51, 3,5-Dimethyl-isoxazole-4-carboxylic Acid[(1S,2S,5R)-3-(2-methyl-5-m-tolyl-thiazole-4-carbonyl)-3-aza-bicyclo[3.1.0]hex-2-ylmethyl]-amide]
155	228	Cc1cccc(-c2sc(C)nc2C(=O)N2C[C@@H]3C[C@@H]3[C@H]2CNC(=O)c2cccc3ccccc23)c1 [Example 52, Naphthalene-1-carboxylic acid[(1S,2S,5R)-3-(2-methyl-5-m-tolyl-thiazole-4-carbonyl)-3-aza-bicyclo[3.1.0]hex-2-ylmethyl]-amide]
26	18	Cc1cccc(-c2sc(C)nc2C(=O)N2C[C@@H]3C[C@@H]3[C@H]2CNC(=O)c2nccc3ccccc23)c1 [Example 54, Isoquinoline-1-carboxylic Acid[(1S,2S,5R)-3-(2-methyl-5-m-tolyl-thiazole-4-carbonyl)-3-aza-bicyclo[3.1.0]hex-2-ylmethyl]-amide]
37	57	Cc1cccc(-c2sc(C)nc2C(=O)N2C[C@@H]3C[C@@H]3[C@H]2CNC(=O)c2n[nH]c3ccccc23)c1 [Example 58, 1H-Indazole-3-carboxylic Acid[(1S,2S,5R)-3-(2-methyl-5-m-tolyl-thiazole-4-carbonyl)-3-aza-bicyclo[3.1.0]hex-2-ylmethyl]-amide]
21	9	Cc1nc(C(=O)N2C[C@@H]3C[C@@H]3[C@H]2CNC(=O)c2cccc3c2OC(C)(C)C3)c(-c2cccc(Cl)c2)s1 [Example 73, 2,2-Dimethyl-2,3-dihydro-benzofuran-7-carboxylic Acid{(1S,2S,5R)-3-[5-(3-chloro-phenyl)-2-methyl-thiazole-4-carbonyl]-3-aza-bicyclo[3.1.0]hex-2-ylmethyl}-amide]
84	48	Cc1nc(C(=O)N2C[C@@H]3C[C@@H]3[C@H]2CNC(=O)c2cccc(Br)c2)c(-c2cccc(Cl)c2)s1 [Example 74, 3-Bromo-N-{(1S,2S,5R)-3-[5-(3-chloro-phenyl)-2-methyl-thiazole-4-carbonyl]-3-aza-bicyclo[3.1.0]hex-2-ylmethyl}-benzamide]
